Assay results: patent US20080139608A1, “2,6,8, Trisubstituted 1-deazapurines and their different uses” (Universiteit Leiden, priority 2006, published 2008)

Columns and labels:
[1] = target: T1, human adenosine A1 receptor (Homo sapiens, UniProt P30542); experiment: Radioligand binding assay, displacement of specific [3H]DPCPX binding; settings: CHO cells expressing human adenosine A1 receptors; n = 3; read-out: A1 Ki ± SEM, displacement of specific [3H]DPCPX binding
T1 construct: expressed in transfected cells; host or cells: CHO cells
T1 sequence (P30542 1-326): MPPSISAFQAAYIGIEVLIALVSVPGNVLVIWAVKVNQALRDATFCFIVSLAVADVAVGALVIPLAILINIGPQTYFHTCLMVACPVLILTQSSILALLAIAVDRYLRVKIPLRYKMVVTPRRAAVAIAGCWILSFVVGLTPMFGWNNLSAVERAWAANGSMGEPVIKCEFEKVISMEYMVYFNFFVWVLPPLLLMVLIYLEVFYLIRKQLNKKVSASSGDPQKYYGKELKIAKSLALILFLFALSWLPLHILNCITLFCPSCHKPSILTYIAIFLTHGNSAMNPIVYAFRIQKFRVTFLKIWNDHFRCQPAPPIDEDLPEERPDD
Protocol: Radioligand Binding Studies [^3H]DPCPX was purchased from Amersham. All compounds made were tested in radioligand binding assays to determine their affinities at the human adenosine A1 receptor. The affinities at the A1 receptors were determined on CHO cells expressing the human receptors, using [^3H]DPCPX as the radioligand according to a previously described method.^11
Data Analysis Competition binding data were fit to a single-site binding model and plotted using the software package Prism (Graph Pad, San Diego, Calif., USA). The Cheng-Prusoff equation Ki=IC50/(1+[I]/Kd) was used to calculate Ki values, where Ki is the affinity constant for the competing ligand, [I] is the concentration of the free radioligand, and Kd is the affinity constant for the radioligand.

Row | Compound | Ki [1] [nM] | melting point [°C]
1 | CCCc1nc2c(-c3ccccc3)cc(-c3ccccc3)nc2[nH]1 [Compound 6, 2,6-Diphenyl-8-propyl-1-deazapurine] | 2.45 ± 0.23 | 
2 | CC(C)c1nc2nc(-c3ccccc3)cc(-c3ccccc3)c2[nH]1 [Compound 7, 2,6-Diphenyl-8-isopropyl-1-deazapurine] | 0.61 ± 0.04 | 
3 | c1ccc(-c2cc(-c3ccccc3)c3[nH]c(C4CCCC4)nc3n2)cc1 [Compound 11, 8-Cyclopentyl-2,6-diphenyl-1-deazapurine] | 0.62 ± 0.3 | 

Other lines, results leading:

Row | Ki [1] [nM] | melting point [°C] | Compound
4 |  | 196 to 197 | CC(C)CCc1nc2nc(-c3ccccc3)cc(-c3ccccc3)c2[nH]1 [Compound 9, 2,6-Diphenyl-8-isopentyl-1-deazapurine]
5 | 0.9 ± 0.21 |  | c1ccc(-c2cc(-c3ccccc3)c3[nH]c(C4CCCCC4)nc3n2)cc1 [Compound 12, 2,6-Diphenyl-8-cyclohexyl-1-deazapurine]
